According to patent publication US20060121449A1, “Method for selection of compounds which inhibit clonal cell growth and use thereof” (priority 2002, published 2006):

Tests used:
[1] = test system: HSV2; assay: HSV2 replication and cytopathogenicity in RK13 cells (Exp 12); assay type: cell-based, Herpes virus 2; conditions: for Coverage of the bottom read after 24 hours: 1 g = 100% coverage of the bottom; for Cytopathogenicity read after 24 hours: 1d is 100% degeneration
Protocol: RK13 cells and HSV2 v12225 was obtained from Dr. G. Hoddevik, National Institute of Public Health, Oslo, Virus had been stored at −75° C. It was propagated on RK13 cells.
Then the medium, Eagles MEM with 5% FCS, was removed and replaced by new medium.
The inoculated virus was removed by changing the medium the day before titration. […] 1, esperiment 12.

[2] = test system: S100T1 cell strain (polyoma virus transformed BHK21/c13); assay: Surface growth (degree of confluence) of S100T1 cells on plastic (Exp 5); assay type: cell-based, hamster; conditions: 2-4 days
Excerpt: (§1) The degree of confluence of polyoma virus transformed BHK21/c13 cells, the S100T1 cell strain, growing on plastic surface was observed 2-4 days after seeding 3000 or […] cells in appropriate wells of a 96 well tissue culture plate (Nunc).

[3] = test system: HSV1; assay: HSV1 replication and cytopathogenicity in RK13 cells (Exp 11a, 11b); assay type: cell-based, Herpes virus type 1; conditions: for Coverage of the bottom read after 2 days / Cytopathogenicity read after 2 days: 11b, HSV 2 μl/well; for Coverage of the bottom read after 2 days: 1 g = 100% coverage of the bottom; for Cytopathogenicity read after 2 days: 1d is 100% degeneration
Protocol: RK13 cells and HSV1 v:11252 was obtained from Dr. G. Hoddevik, National Institute of Public Health, Oslo, Virus had been stored at −75° C.
The inoculated virus was not removed before the titration in the last experiment. This time, however, removal of inoculate was performed next day.
HSV-1 was added undiluted, but 4-OH-OPB was diluted in 50 μl medium. The row seeded with 2000 nl of HSV was titrated and read after 4 days:
This time the inhibition is 10 times better than before. The difference from 1st time was that the day after infecting cell cultures the medium was changed in order to get rid of remaining active HSV. In addition the original HSV 1 infected and treated cultures were incubated one day more, for 48 hours. The production of virus is then measured in titration of 4-fold dilution steps.

[4] = test system: spleen antibody producing cells against sheep red cells; assay: Jerne's test: haemolytic plaques of spleen cells after immunisation with sheep red cells (Exp 10); assay type: in vivo, mouse; conditions: Exp 10 animal 2, low: 2 μl 20 mM s.c. (est. max extracellular 4.6 μM)
[5] = test system: BHK21/c13 cells; assay: Surface growth (degree of confluence) of BHK21/c13 cells on plastic (Exp 5); assay type: cell-based, hamster; conditions: for Concentration giving about full inhibition of growth on surface: 2-4 days
Excerpt: as §1

[6] = test system: MT4 cells; assay: Clonal growth of MT4 cells in fluid medium, cross dilution of cells and inhibitor (Exp 14); assay type: cell-based
Protocol: Ten fold cell dilutions indicatet in the last row (Table 1) were undertaken in Falcon tissue culture tray using 6×6 wells.
The 4-OH-OPB dilutions were prepared minutes before being used from 20 mM stock solution in DMSO.
The 10 μM and 3 μM dilutions were made first and each of them were diluted further in 1/10 steps.

[7] = test system: BHK21/c13 (normal baby hamster kidney cells); assay: Clonal growth of normal BHK21/c13 cells in soft agar with growth factors (Exp 3, 6); assay type: cell-based; set-up: Clonal inhibition: unit not given here; conditions: for Clonal inhibition: BHK21/c13 + insulin
Protocol: This experiment used BHK21/c13 cells grown in the Falcon plates with 24 wells. Each well received 120000 cells seeded in a top layer of 0.3 ml with 0.8% ultra low gelling temperature agarose (type IX, Sigma). This layer was placed upon a 0.3 ml bottom layer with 3% of the same agarose. The medium contained Eagles MEM and RPMI 1640 with 10% foetal bovine serum. The medium was supplemented with either: 15% conditioned medium (from BHK21/c13 cultures), the serum extender Mito+ or 0.1 i.u. Insulin Actrapid (Novo) or with two or all three of these in combination.
Agar cultures were prepared in wells of 24 well Falcon tissue culture plate. […] The medium contained about equal amounts of Eagle and RPMI 1640 with 10% FBS. Insulin (Actrapid, Novo) was added in a concentration of 0.1 i.u./ml to BHK21/c13 cell cultures only.

[8] = test system: HSV1; assay: HSV1 replication and cytopathogenicity in RK13 cells (Exp 11a, 11b); assay type: cell-based, Herpes virus type 1; conditions: for Cytopathogenicity read after 24 hours: 4d = 100% degenerated; for Cell layer read after 24 hours: 4 g = unaffected and covering bottom of the well; for Coverage of the bottom read after 2 days / Cytopathogenicity read after 2 days: 11b, HSV 2 μl/well; for Coverage of the bottom read after 2 days: 1 g = 100% coverage of the bottom; for Cytopathogenicity read after 2 days: 1d is 100% degeneration
[9] = 11a, inoculate 1 μl/well, 30 μM
[10] = 11a, inoculate 4 μl/well, 30 μM
[11] = 11a, inoculate 16 μl/well, 30 μM

CCCCC1(O)C(=O)N(c2ccccc2)N(c2ccc(O)cc2)C1=O (stereo not shown) [4-OH-OPB, 4-butyl-4-hydroxy-2(p-hydroxyphenyl)-1-phenyl-3,5-pyrazolidinedione]
Concentrations with inhibited production of HSV2 [1]: above 0.1 μM
Coverage of the bottom read after 24 hours ([1]; 2 μl/well, 0.1 μM): 1 g
Cytopathogenicity read after 24 hours ([1]; 2 μl/well, 0.1 μM): 0.6 days
Coverage of the bottom read after 24 hours ([1]; 2 μl/well, 0.3 μM): 1 g
Cytopathogenicity read after 24 hours ([1]; 2 μl/well, 0.3 μM): 0.7 days
Coverage of the bottom read after 24 hours ([1]; 2 μl/well, 1 μM): 1 g
Cytopathogenicity read after 24 hours ([1]; 2 μl/well, 1 μM): 0.7 days
Coverage of the bottom read after 24 hours ([1]; 2 μl/well, 3 μM): 0.8 g
Cytopathogenicity read after 24 hours ([1]; 2 μl/well, 3 μM): 0.95 days
Coverage of the bottom read after 24 hours ([1]; 2 μl/well, 10 μM): 0.9 g
Cytopathogenicity read after 24 hours ([1]; 2 μl/well, 10 μM): 0.95 days
Coverage of the bottom read after 24 hours ([1]; 2 μl/well, 30 μM): 0.7 g
Cytopathogenicity read after 24 hours ([1]; 2 μl/well, 30 μM): 0.2 days
Coverage of the bottom read after 24 hours ([1]; 8 μl/well, 0.1 μM): 1 g
Cytopathogenicity read after 24 hours ([1]; 8 μl/well, 0.1 μM): 0.9 days
Coverage of the bottom read after 24 hours ([1]; 8 μl/well, 0.3 μM): 1 g
Cytopathogenicity read after 24 hours ([1]; 8 μl/well, 0.3 μM): 0.9 days
Coverage of the bottom read after 24 hours ([1]; 8 μl/well, 1 μM): 1 g
Cytopathogenicity read after 24 hours ([1]; 8 μl/well, 1 μM): 0.9 days
Coverage of the bottom read after 24 hours ([1]; 8 μl/well, 3 μM): 0.8 g
Cytopathogenicity read after 24 hours ([1]; 8 μl/well, 3 μM): 0.95 days
Coverage of the bottom read after 24 hours ([1]; 8 μl/well, 10 μM): 0.86 g
Cytopathogenicity read after 24 hours ([1]; 8 μl/well, 10 μM): 0.95 days
Coverage of the bottom read after 24 hours ([1]; 8 μl/well, 30 μM): 0.7 g
Cytopathogenicity read after 24 hours ([1]; 8 μl/well, 30 μM): 0.2 days
Inhibition of HSV2 titre at 3 μM ([1]; titration incubated for 3 days): about 3 log
Concentration giving about full inhibition of growth on surface ([2]; 3000 S100T1 cells/well): 1 µM
Concentration giving about full inhibition of growth on surface ([2]; 10000 S100T1 cells/well): 3 µM
Coverage of the bottom read after 2 days ([3]; 0.1 μM): 1 g
Cytopathogenicity read after 2 days ([3]; 0.1 μM): 0.28 days
Cytopathogenicity read after 2 days ([3]; 0.3 μM): 0.28 days
Coverage of the bottom read after 2 days ([3]; 10 μM): 0.4 g
Cytopathogenicity read after 2 days ([3]; 30 μM): 0 days
Concentration found to inhibit satisfactorily ([3]; Exp 11b, new medium after 24 hours, titrated after 48 hours): 1 µM
Spleen weight [4]: 148 mg
Concentration needed for total inhibition of surface growth, BHK21/c13 compared to S100T1 [5]: about 3 times
Growth on surface with 100 and 300 nM after 4 days ([5]; 3000 BHK21/c13 cells/well): growth inhibition compared to the control
Concentration giving about full inhibition of growth on surface ([5]; 3000 BHK21/c13 cells/well): 3 µM
Concentration giving about full inhibition of growth on surface ([5]; 10000 BHK21/c13 cells/well with 0.1 i.u./ml insulin): 10 µM
Concentration needed for arresting colony growth: less in cultures with 5000 cells than with 500000 cells [6]: about 2 logs
Clonal inhibition ([7]; 0.3 μM added after 24 hours, read after 48 hours): 0
Clonal inhibition ([7]; 0.3 μM added immediately, read after 24 hours): 0
Clonal inhibition ([7]; 0.3 μM added immediately, read after 48 hours): 0
Clonal inhibition ([7]; 1 μM added after 24 hours, read after 48 hours): 0
Clonal inhibition ([7]; 1 μM added immediately, read after 24 hours): 0
Clonal inhibition ([7]; 1 μM added immediately, read after 48 hours): 0
Clonal inhibition ([7]; 3 μM added after 24 hours, read after 48 hours): 0
Clonal inhibition ([7]; 3 μM added immediately, read after 24 hours): 0
Clonal inhibition ([7]; 3 μM added immediately, read after 48 hours): 0
Clonal inhibition ([7]; 10 μM added after 24 hours, read after 48 hours): 0
Clonal inhibition ([7]; 10 μM added immediately, read after 24 hours): +
Clonal inhibition ([7]; 10 μM added immediately, read after 48 hours): +
Clonal inhibition ([7]; 30 μM added after 24 hours, read after 48 hours): 0
Clonal inhibition ([7]; 30 μM added immediately, read after 24 hours): +++
Clonal inhibition ([7]; 30 μM added immediately, read after 48 hours): ++
Effect when treated first after 24 hours ([7]; Exp 6, BHK21/c13): no effect was detected
Concentration with small, but significant effect on clonal inhibition ([7]; Exp 6, BHK21/c13, treated immediately on seeding, photograph after 24 hours): ≥ 10 µM
HSV titration of treated wells, read after 4 days ([8]; 11a, 1 μl HSV, 0.3 μM, dilution 1/1024): ((+)?
Cytopathogenicity read after 24 hours ([8]; 11a, inoculate 1 μl/well, 0.1 μM): 1.7 days
Cytopathogenicity read after 24 hours ([8]; 11a, inoculate 1 μl/well, 0.3 μM): 1.7 days
Cytopathogenicity read after 24 hours ([8]; 11a, inoculate 1 μl/well, 1 μM): 1.7 days
Cytopathogenicity read after 24 hours ([8]; 11a, inoculate 1 μl/well, 3 μM): 1.7 days
Cytopathogenicity read after 24 hours ([8]; 11a, inoculate 1 μl/well, 10 μM): 4 days
Cell layer read after 24 hours [8, 9]: 3 to 4 g
Cytopathogenicity read after 24 hours [8, 9]: 0 days
Cytopathogenicity read after 24 hours ([8]; 11a, inoculate 4 μl/well, 0.1 μM): 2.6 days
Cytopathogenicity read after 24 hours ([8]; 11a, inoculate 4 μl/well, 0.3 μM): 2.6 days
Cytopathogenicity read after 24 hours ([8]; 11a, inoculate 4 μl/well, 1 μM): 2.6 days
Cytopathogenicity read after 24 hours ([8]; 11a, inoculate 4 μl/well, 3 μM): 2.6 days
Cytopathogenicity read after 24 hours ([8]; 11a, inoculate 4 μl/well, 10 μM): 4 days
Cell layer read after 24 hours [8, 10]: 3 to 4 g
Cytopathogenicity read after 24 hours [8, 10]: 0 days
Cytopathogenicity read after 24 hours ([8]; 11a, inoculate 16 μl/well, 0.1 μM): 3.4 days
Cytopathogenicity read after 24 hours ([8]; 11a, inoculate 16 μl/well, 0.3 μM): 3 to 4 days
Cytopathogenicity read after 24 hours ([8]; 11a, inoculate 16 μl/well, 1 μM): 3.4 days
Cytopathogenicity read after 24 hours ([8]; 11a, inoculate 16 μl/well, 3 μM): 4 days
Cytopathogenicity read after 24 hours ([8]; 11a, inoculate 16 μl/well, 10 μM): 4 days
Cell layer read after 24 hours [8, 11]: 3 to 4 g
Cytopathogenicity read after 24 hours [8, 11]: 0.5 days
Coverage of the bottom read after 2 days ([8]; 0.3 μM): 1 g
Coverage of the bottom read after 2 days ([8]; 1 μM): 1 g
Cytopathogenicity read after 2 days ([8]; 1 μM): 0.28 days
Coverage of the bottom read after 2 days ([8]; 3 μM): 1 g
Cytopathogenicity read after 2 days ([8]; 3 μM): 0.28 days
Cytopathogenicity read after 2 days ([8]; 10 μM): 1 days
Coverage of the bottom read after 2 days ([8]; 30 μM): 1 g
Concentration that inhibited HSV / necessary for the cure of the infection in cell culture ([8]; Exp 11a, inoculate not removed before titration): 10 µM
Concentration that inhibited satisfactorily ([8]; Exp 11b): 1000 nM
Total titre reduction ([8]; Exp 11b): about 3.5 log
Dose giving maximal inhibition of HSV1 titre ([8]; Exp 11b, titration read after four days): ≥ 1 µM
Inhibition in Exp 11b compared with Exp 11a ([8]; medium changed the day after infection): 10 times
